These results are taken from patent US20150374718A1, “Zhankuic Acid A and Analogs thereof and Their Use as an Anti-Inflammatory Agent” (National Cheng Kung University, priority 2014, published 2015).

Assay [1] relates to S. choleraesuis-induced TNF-α and IL-6 production. The assay is described as follows: Plasma cytokines in S. choleraesuis-infected mice. The conditions noted are these: C57BL/6 mice; ZAA 10 mg/kg, oral S. choleraesuis 2×10^9 CFU/mouse; 6 h. It is filed as in vivo.
In assay [2] the test system is LPS-induced TNF-α and IL-6 production. The experiment in a line: Plasma cytokines in LPS-injected mice. It is filed as in vivo. Conditions: ZAA i.p. 30 min before LPS 4 mg/kg i.p., 6 h.
The test system is the same in assay [3]. The assay is described as follows: ELISA of cytokines in LPS-treated RAW264.7 cells. The assay is classed as cell-based, murine. The conditions noted are these: ZAA 1 h, LPS 0.25 or 0.5 μg/mL. On the technique in general: In an ELISA, binding on a coated surface is turned into a signal by an enzyme label.
Assay [4] relates to LPS-induced lung and renal injury. The experiment in a line: LPS-induced lung and renal injury in mice. The conditions noted are these: ZAA 20 mg/kg i.p., LPS 4 mg/kg i.p., 10 h.
Experimental: After 10 h, mice were sacrificed, and their lung and kidney tissues were removed. […] (B) The number of infiltrated PMNs in each alveolus was observed by light microscopy (original magnification ×200). The number of PMNs was counted in four randomly chosen fields per slide for each mouse and normalized to the number of alveoli. […] Values shown in B-D are means ±SD (n=10; **p<0.01 and ***p<0.001).
The lung and kidney were embedded in paraffin, sectioned, and stained with hematoxylin and eosin. Serum samples were collected for determination of blood urea nitrogen (BUN) and serum creatinine levels.
Assay [5] relates to LPS-induced NO production. Conditions: reference (10); cited from earlier work.
A further assay concerns NO production. The experiment in a line: Griess assay of nitrite (NO) in macrophage culture medium. The assay is classed as cell-based, murine. The conditions noted are these: ZAA 1 h, dose-dependent. As to the method:
FIG. 1. ZAA inhibits the production of inflammation-related molecules in LPS- and IFN-γ-stimulated murine macrophages. […] Total cell lysates were subjected to immunoblotting for detecting COX2 and iNOS. Relative expression levels of COX2 and iNOS protein were quantified by densitometric analysis with ImageJ software and normalized according to the β-actin reference band. […] The presence of nitrite in the culture medium was analyzed by the Griess assay and used as an indication of NO levels (n=4; *p<0.05 and ***p<0.001 vs. LPS- or IFN-γ-induced cells). (C) Raw264.7 cells were cotransfected with pNFKB-Luc and pβ-actin-LacZ plasmids. […] Total cell lysates were harvested, and their luciferase activities were determined and normalized on the basis of β-galactosidase activities. Values are means±SD (n=4; *p<0.05 and **p<0.01 vs. LPS-stimulated cells). […] Numbers below the blots in D and those shown in the table below the blots in E represent the relative expression levels quantified by densitometric analysis with ImageJ software and normalized according to the β-actin reference bands. […]
C57BL/6 mice were injected intraperitoneally with 3% thioglycollate, and their peritoneal macrophages were collected 72 h later. […] The presence of nitrite (a metabolite of NO) in the culture medium was analyzed by the Griess assay (Sigma-Aldrich), as previously described (16).
A general note: Griess reagent forms a coloured azo dye with nitrite.

The mark [6] stands for this setting: TLR4 signaling-defective C3H/HeJ mice.

For `C=C(CC[C@@H](C)[C@H]1CC[C@H]2C3=C(C(=O)C[C@]12C)[C@@]1(C)CCC(=O)[C@@H](C)[C@@H]1CC3=O)C(C)C(=O)O` (stereo partly drawn) [No. 1, Zhankuic acid A], in assay [1], the “S. choleraesuis-induced IL-6 production” value is on record as “effectively suppressed” and the “S. choleraesuis-induced TNF-α production” value is “effectively suppressed”. Further, in assay [2] (C3H/HeN mice), the “plasma IL-6 production” value is listed as “significantly reduced” and the “plasma TNF-α production” value is given as “significantly reduced”. For the same compound, in assay [2] (setting [6]), the “plasma IL-6 production” value was “a much weaker response” and the “plasma TNF-α production” value is given as “a much weaker response”. For the same compound, the “LPS-induced TNF-α production” value in assay [3] (supernatant after 4 h) is “inhibited”. Also, the “LPS-induced IL-6 production” value in assay [3] (supernatant after 6 h) is reported as “inhibited”. Further, in assay [4] (C3H/HeN mice), the “LPS-induced pulmonary accumulation of PMNs” value is “significantly prevented” and the “extent of LPS-induced glomerulonephritis” value is “significantly reduced”. In assay [4], the BUN level entry is given as “markedly reduced” and the serum creatinine level entry is given as “markedly reduced”. In addition, the “LPS-induced NO production” value in assay [5] is “inhibiting”. In addition, in the assay with NO production (then IFN-γ 50 ng/mL 24 h), the “IFN-γ-induced NO production” value is “inhibited”. For the same compound, the “LPS-induced NO production” value in the assay on NO production (then LPS 0.5 μg/mL 24 h) is on record as “inhibited”.
